# In US20020091095A1, “Modulation of Fas and FasL expression” (priority 1999, published 2002):
# Experiments:
# FasL [1] = assay: FasL expression at the cell surface by flow cytometry, Jurkat cells; assay type: cell-based; conditions: Jurkat human leukemia T cells, 100 μg/ml sequence, 48 h, treated vs control cells
# Description: (§1) Cancer cells and PBMCs were seeded in 6 well flat-bottom microplates and were maintained at 37° C. in a 5% CO2 atmosphere. Unless stated otherwise, 2×10^5 cells/ml were incubated for 48 h with 0 μg/ml (control) or 100 μg/ml ([…]) (treated) of the sequences.
# (§2) Fas and FasL expression were measured by flow cytometry using anti-Fas FITC-conjugated monoclonal antibodies and anti-FasL PE-conjugated monoclonal antibodies in a FACScalibur Flow Cytometer (Becton Dickinson, San Jose, Calif., USA) using the CELLQuest program (Becton Dickinson).
# (§3) Results are expressed as percentage (%) increase in the expression of Fas and of FasL measured on treated cells compared to control cells.
# (§4) Jurkat human leukemia T cells are an atypical multi-drug resistant human suspension tumor cell model.
# Fas [2] = assay: Fas expression at the cell surface by flow cytometry, OVCAR-3 cells; assay type: cell-based, human; conditions: OVCAR-3 ovarian cancer cells, 100 μg/ml sequence, 48 h, treated vs control cells
# Description: as §1, §2, §3
# (§5) OVCAR-3 ovarian cancer cells are a p53 mutated, p21/waf-1/Cip deleted, metastatic human solid tumor model.
# FasL [3] = assay: FasL expression at the cell surface by flow cytometry, MCF-7 cells; assay type: cell-based, human; conditions: MCF-7 breast cancer cells, 100 μg/ml sequence, 48 h, treated vs control cells
# Description: as §1, §2, §3
# (§6) MCF-7 human breast cancer cells are a caspase-3 negative, estrogen-dependent human solid tumor model.
# [4] = system: EL-4 murine T lymphoma cells; assay: EL-4 murine T lymphoma implanted in C57/BL6 lpr/lpr mice; assay type: in vivo; conditions: for efficacy, dose dependence: 1, 10 or 100 mg/kg
# Description: EL-4 murine T lymphoma cells are implanted into C57/BL6 lpr/lpr (Fas negative mice). The mice are divided into 30 groups of 10 mice. On day 0, group 1 mice receive saline, group 2 mice receive 1, 10 or 100 mg/kg of SEQ. ID NO:5, group 3 mice receive 1, 10 or 100 mg/kg of SEQ. ID NO:16, group 4 receive 1, 10 or 100 mg/kg of SEQ. ID NO:17, group 5 mice receive 1, 10 or 100 mg/kg of SEQ. ID NO: 18, group 6 mice receive anti-Fas antibodies, group 7 mice receive 1, 10 or 100 mg/kg of SEQ. ID NO:5 +anti-Fas antibodies, group 8 mice receive 1, 10 or 100 mg/kg of SEQ. ID NO: 16 +anti-Fas antibodies, group 9 receive 1, 10 or 100 mg/kg of SEQ. ID NO:17 +anti-Fas antibodies, group 10 mice receive 1, 10 or 100 mg/kg of SEQ. ID NO:18 +anti-Fas antibodies. In these different groups, anti-Fas antibodies are administered at any dose in the range of about 0.003 to about 0.3 mg/kg. […] The efficacy of the SEQ. ID NO:5, the SEQ. ID NO: 16 and the SEQ. ID NO: 17 is dose-dependent.
# FasL [5] = assay: FasL expression at the cell surface by flow cytometry, OVCAR-3 cells; assay type: cell-based, human; conditions: OVCAR-3 ovarian cancer cells, 100 μg/ml sequence, 48 h, treated vs control cells
# Description: as §1, §2, §3, §5
# Fas [6] = assay: Fas expression at the cell surface by flow cytometry, PBMCs; assay type: cell-based, human; conditions: 100 μg/ml sequence, 48 h, treated vs control cells
# Description: (§7) Peripheral blood mononuclear cells (hereinafter, “PBMCs”) were isolated from human blood by Ficoll-Hypaque (Amersham Pharmacia Biotech, Baie d'Urfée, Québec, Canada) density gradient centrifugation.
# as §1, §2, §3
# Fas [7] = assay: Fas expression at the cell surface by flow cytometry, LNCaP cells; assay type: cell-based, human; conditions: LNCaP prostate cancer cells, 100 μg/ml sequence, 48 h, treated vs control cells
# Description: as §1, §2, §3
# (§8) LNCaP prostate cancer cells are a TGF-beta 1 receptor negative, […], metastatic human solid tumor model.
# Fas [8] = assay: Fas expression at the cell surface by flow cytometry, UMUC-3 cells; assay type: cell-based, human; conditions: UMUC-3 bladder cancer cells, 100 μg/ml sequence, 48 h, treated vs control cells
# Description: as §1, §2, §3
# (§9) UMUC-3 bladder cancer cells are a P-glycoprotein overexpressing human cell line.
# FasL [9] = assay: FasL expression at the cell surface by flow cytometry, PBMCs; assay type: cell-based, human; conditions: 100 μg/ml sequence, 48 h, treated vs control cells
# Description: as §7, §1, §2, §3
# FasL [10] = assay: FasL expression at the cell surface by flow cytometry, SK-OV-3 cells; assay type: cell-based, human; conditions: SK-OV-3 ovarian cancer cells, 100 μg/ml sequence, 48 h, treated vs control cells
# Description: as §1, §2, §3
# (§10) SK-OV-3 ovarian cancer cells are a p53 mutated, p21/waf-1/Cip deleted, p15^ink4B,p16^ink4 deleted metastatic human solid tumor model.
# FasL [11] = assay: FasL expression at the cell surface by flow cytometry, UMUC-3 cells; assay type: cell-based, human; conditions: UMUC-3 bladder cancer cells, 100 μg/ml sequence, 48 h, treated vs control cells
# Description: as §1, §2, §3, §9
# Fas [12] = assay: Fas expression at the cell surface by flow cytometry, SK-OV-3 cells; assay type: cell-based, human; conditions: SK-OV-3 ovarian cancer cells, 100 μg/ml sequence, 48 h, treated vs control cells
# Description: as §1, §2, §3, §10
# Fas [13] = assay: Fas expression at the cell surface by flow cytometry, T-24 cells; assay type: cell-based, human; conditions: T-24 bladder cancer cells, 100 μg/ml sequence, 48 h, treated vs control cells
# Description: as §1, §2, §3
# (§11) T-24 bladder cancer cells are a p53 mutated human cell line T-24 cells (1.0×10^5 cells/ml) were incubated with the 6 base sequences shown in Table 4.
# Fas [14] = assay: Fas expression at the cell surface by flow cytometry, MCF-7 cells; assay type: cell-based, human; conditions: MCF-7 breast cancer cells, 100 μg/ml sequence, 48 h, treated vs control cells
# Description: as §1, §2, §3, §6
# FasL [15] = assay: FasL expression at the cell surface by flow cytometry, T-24 cells; assay type: cell-based, human; conditions: T-24 bladder cancer cells, 100 μg/ml sequence, 48 h, treated vs control cells
# Description: as §1, §2, §3, §11
# Fas [16] = assay: Fas expression at the cell surface by flow cytometry, Jurkat cells; assay type: cell-based; conditions: Jurkat human leukemia T cells, 100 μg/ml sequence, 48 h, treated vs control cells
# Description: as §1, §2, §3, §4
# FasL [17] = assay: FasL expression at the cell surface by flow cytometry, LNCaP cells; assay type: cell-based, human; conditions: LNCaP prostate cancer cells, 100 μg/ml sequence, 48 h, treated vs control cells
# Description: as §1, §2, §3, §8
# EAE = EAE in (SJL/J×PL/J) F1 mice induced with myelin basic protein; assay type: in vivo; conditions: for efficacy, dose dependence: 1, 10 or 100 mg/kg; for progression of EAE: sequence 1, 10 or 100 mg/kg + anti-Fas antibodies, for 3 days
# Description: Female (SJL/J×PL/J) F1 mice are injected subcutaneously in both femoral regions with an emulsion containing 0.5 mg of myelin basic protein (MBP) mixed with complete Freund's adjuvant. After 24 h, 400 ng of Bordetella pertussis toxin is administered intraperitoneally. On the day of onset (day 0), group 1 mice receive saline, group 2 mice receive 1, 10 or 100 mg/kg of SEQ. ID NO:5, group 3 mice receive 1, 10 or 100 mg/kg of SEQ. ID NO:16, group 4 mice receive 1, 10 or 100 mg/kg of SEQ. ID NO:17, group 5 mice receive 1, 10 or 100 mg/kg of SEQ. ID NO: 18, group 6 mice receive anti-Fas antibodies, group 7 mice receive 1, 10 or 100 mg/kg of SEQ. ID NO:5 +anti-Fas antibodies, group 8 mice receive 1, 10 or 100 mg/kg of SEQ. ID NO:16 +anti-Fas antibodies, group 9 receive 1, 10 or 100 mg/kg of SEQ. ID NO:17 +anti-Fas antibodies, group 10 mice receive 1, 10 or 100 mg/kg of SEQ. ID NO: 18 +anti-Fas antibodies for 3 days by intracistemal administration (20 μg/day). In these different groups, anti-Fas antibodies are administered at any dose in the range of about 0.003 to about 0.3 mg/kg. […] The efficacy of the SEQ. ID NO:5, the SEQ. ID NO: 16 and the SEQ. ID NO: 17 is dose-dependent.
# [18] = sequence 1, 10 or 100 mg/kg + anti-Fas antibodies, vs all other groups
# [19] = single agent (sequence 1, 10 or 100 mg/kg, or anti-Fas antibodies) vs group 1 (saline)
Sequence,% INCREASE FasL (FasL [1]) [%],% INCREASE Fas (Fas [2]) [%],% INCREASE FasL (FasL [3]) [%],"efficacy, dose dependence [4]","tumor mass [4, 18]","tumor mass [4, 19]",% INCREASE FasL (FasL [5]) [%],% INCREASE Fas (Fas [6]) [%],% INCREASE Fas (Fas [7]) [%],% INCREASE Fas (Fas [8]) [%],% INCREASE FasL (FasL [9]) [%],% INCREASE FasL (FasL [10]) [%],% INCREASE FasL (FasL [11]) [%],% INCREASE Fas (Fas [12]) [%],% INCREASE Fas (Fas [13]) [%],% INCREASE Fas (Fas [14]) [%],% INCREASE FasL (FasL [15]) [%],% INCREASE Fas (Fas [16]) [%],% INCREASE FasL (FasL [17]) [%],progression of EAE (EAE),other results
GGGAGG [SEQ ID NO:17],91,49,194,dose-dependent,least tumor mass,less tumor mass,59,266,48,39,356,−16,106,−6,124,127,75,77,55,least progression of EAE,"efficacy, dose dependence (EAE): dose-dependent"
GGGCGG [SEQ ID NO:18],356,65,322,,least tumor mass,less tumor mass,142,523,55,72,850,42,250,29,139,165,205,208,126,least progression of EAE,
GGGGGG [SEQ ID NO:16],49,−1,18,dose-dependent,least tumor mass,less tumor mass,7,38,6,−5,42,−28,10,−14,35,−7,−14,118,13,least progression of EAE,"efficacy, dose dependence (EAE): dose-dependent"
